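Where inhibition never reached the appropriate level, the endpoint shown equals the highest concentration tested. Otherwise, values were interpolated linearly from a five-concentration, 48-hour dose response in 96-well plates. Abbreviation: GI50, concentration required for 50% inhibition of growth.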 Active and inactive are the calls of the source. Rule as the data show it: active = GI50 up to about 1.1 µM and inactive = higher.
What was measured:
Assay in all cases: NCI-60 cell line screen, 48 h
ACHN = test system: ACHN
M14 = test system: M14
HOP-92 = test system: HOP-92
NCI-H522 = test system: NCI-H522
SW-620 = test system: SW-620
IGROV-1 = test system: IGROV-1
SNB-78 = test system: SNB-78
COLO 205 = test system: COLO 205
SK-MEL-2 = test system: SK-MEL-2
UACC-257 = test system: UACC-257
SNB-19 = test system: SNB-19
UO-31 = test system: UO-31
OVCAR-8 = test system: OVCAR-8
DMS-273 = test system: DMS-273
HCT-15 = test system: HCT-15
NCI-H460 = test system: NCI-H460
M19-MEL = test system: M19-MEL
SN12C = test system: SN12C
SNB-75 = test system: SNB-75
CCRF-CEM = test system: CCRF-CEM
SK-OV-3 = test system: SK-OV-3
EKVX = test system: EKVX
SK-MEL-5 = test system: SK-MEL-5
U-251 = test system: U-251
HT-29 = test system: HT-29
A549 = test system: A549
K562 = test system: K562
SR = test system: SR
DMS-114 = test system: DMS-114
HCC 2998 = test system: HCC 2998
A498 = test system: A498
HL-60 = test system: HL-60
SF-539 = test system: SF-539
RPMI-8226 = test system: RPMI-8226
MOLT-4 = test system: MOLT-4
HOP-18 = test system: HOP-18
HCT-116 = test system: HCT-116
SK-MEL-28 = test system: SK-MEL-28
KM-20L2 = test system: KM-20L2
OVCAR-4 = test system: OVCAR-4
LXFL 529 = test system: LXFL 529
TK-10 = test system: TK-10
HOP-62 = test system: HOP-62
OVCAR-5 = test system: OVCAR-5
KM12 = test system: KM12
Malme-3M = test system: Malme-3M
SF-295 = test system: SF-295
786-0 = test system: 786-0
NCI-H23 = test system: NCI-H23
RXF 393 = test system: RXF 393
UACC-62 = test system: UACC-62
NCI-H226 = test system: NCI-H226
SF-268 = test system: SF-268
OVCAR-3 = test system: OVCAR-3
LOX IMVI = test system: LOX IMVI
CAKI-1 = test system: CAKI-1
DLD-1 = test system: DLD-1

**Q.** Which GI50 (ACHN) does the source give for `CCc1cccc(NC(=O)c2cc(/C=C/c3ccccc3)nc(S)n2)c1` here?
**A.** > 100 µM (inactive)

**Q.** What about the GI50 (M14) of the same molecule?
**A.** > 100 µM (inactive)

**Q.** What about the GI50 (HOP-92) of the same molecule?
**A.** > 100 µM (inactive)

**Q.** And the GI50 (NCI-H522)?
**A.** > 100 µM (inactive)

**Q.** What about the GI50 (SW-620) of the same molecule?
**A.** > 100 µM (inactive)

**Q.** What about the GI50 (IGROV-1) of the same molecule?
**A.** > 100 µM (inactive)

**Q.** What about the GI50 (SNB-78) of the same molecule?
**A.** > 100 µM (inactive)

**Q.** What about the GI50 (COLO 205) of the same molecule?
**A.** > 100 µM (inactive)

**Q.** What about the GI50 (SK-MEL-2) of the same molecule?
**A.** > 100 µM (inactive)

**Q.** What about the GI50 (UACC-257) of the same molecule?
**A.** > 100 µM (inactive)

**Q.** What about the GI50 (SNB-19) of the same molecule?
**A.** > 100 µM (inactive)

**Q.** What about the GI50 (UO-31) of the same molecule?
**A.** > 100 µM (inactive)

**Q.** And the GI50 (OVCAR-8)?
**A.** > 100 µM (inactive)

**Q.** What about the GI50 (DMS-273) of the same molecule?
**A.** > 100 µM (inactive)

**Q.** What about the GI50 (HCT-15) of the same molecule?
**A.** > 100 µM

**Q.** And the GI50 (NCI-H460)?
**A.** > 100 µM (inactive)

**Q.** And the GI50 (M19-MEL)?
**A.** > 100 µM (inactive)

**Q.** And the GI50 (SN12C)?
**A.** > 100 µM (inactive)

**Q.** What about the GI50 (SNB-75) of the same molecule?
**A.** > 100 µM (inactive)

**Q.** And the GI50 (CCRF-CEM)?
**A.** > 100 µM (inactive)

**Q.** What about the GI50 (SK-OV-3) of the same molecule?
**A.** > 100 µM (inactive)

**Q.** And the GI50 (EKVX)?
**A.** > 100 µM (inactive)

**Q.** What about the GI50 (SK-MEL-5) of the same molecule?
**A.** > 100 µM (inactive)

**Q.** What about the GI50 (U-251) of the same molecule?
**A.** > 100 µM (inactive)

**Q.** And the GI50 (HT-29)?
**A.** > 100 µM (inactive)

**Q.** What about the GI50 (A549) of the same molecule?
**A.** > 100 µM (inactive)

**Q.** And the GI50 (K562)?
**A.** > 100 µM (inactive)

**Q.** And the GI50 (SR)?
**A.** > 100 µM (inactive)

**Q.** What about the GI50 (DMS-114) of the same molecule?
**A.** > 100 µM (inactive)

**Q.** What about the GI50 (HCC 2998) of the same molecule?
**A.** > 100 µM (inactive)

**Q.** What about the GI50 (A498) of the same molecule?
**A.** > 100 µM (inactive)

**Q.** And the GI50 (HL-60)?
**A.** > 100 µM (inactive)

**Q.** What about the GI50 (SF-539) of the same molecule?
**A.** > 100 µM (inactive)

**Q.** And the GI50 (RPMI-8226)?
**A.** > 100 µM (inactive)

**Q.** What about the GI50 (MOLT-4) of the same molecule?
**A.** > 100 µM (inactive)

**Q.** What about the GI50 (HOP-18) of the same molecule?
**A.** > 100 µM (inactive)

**Q.** And the GI50 (HCT-116)?
**A.** > 100 µM (inactive)

**Q.** What about the GI50 (SK-MEL-28) of the same molecule?
**A.** > 100 µM (inactive)

**Q.** What about the GI50 (KM-20L2) of the same molecule?
**A.** > 100 µM (inactive)

**Q.** What about the GI50 (OVCAR-4) of the same molecule?
**A.** > 100 µM (inactive)

**Q.** And the GI50 (LXFL 529)?
**A.** > 100 µM (inactive)

**Q.** What about the GI50 (TK-10) of the same molecule?
**A.** > 100 µM (inactive)

**Q.** And the GI50 (HOP-62)?
**A.** > 100 µM (inactive)

**Q.** What about the GI50 (OVCAR-5) of the same molecule?
**A.** > 100 µM (inactive)

**Q.** What about the GI50 (KM12) of the same molecule?
**A.** > 100 µM (inactive)

**Q.** And the GI50 (Malme-3M)?
**A.** > 100 µM (inactive)

**Q.** And the GI50 (SF-295)?
**A.** > 100 µM (inactive)

**Q.** And the GI50 (786-0)?
**A.** > 100 µM (inactive)

**Q.** And the GI50 (NCI-H23)?
**A.** > 100 µM (inactive)

**Q.** What about the GI50 (RXF 393) of the same molecule?
**A.** > 100 µM (inactive)

**Q.** What about the GI50 (UACC-62) of the same molecule?
**A.** > 100 µM (inactive)

**Q.** What about the GI50 (NCI-H226) of the same molecule?
**A.** > 100 µM (inactive)

**Q.** What about the GI50 (SF-268) of the same molecule?
**A.** > 100 µM (inactive)

**Q.** And the GI50 (OVCAR-3)?
**A.** > 100 µM (inactive)

**Q.** For `CC/C=C/c1cc2cc[nH]c2c2c1C(C)C[C@@H]2C` (stereo partly drawn), which GI50 (ACHN) is on record?
**A.** 73.5 µM (inactive)

**Q.** And the GI50 (M14)?
**A.** 28.1 µM (inactive)

**Q.** And the GI50 (HOP-92)?
**A.** 24.2 µM (inactive)

**Q.** What about the GI50 (NCI-H522) of the same molecule?
**A.** 18.1 µM (inactive)

**Q.** And the GI50 (SW-620)?
**A.** 31.9 µM (inactive)

**Q.** What about the GI50 (IGROV-1) of the same molecule?
**A.** 40.4 µM (inactive)

**Q.** What about the GI50 (SNB-78) of the same molecule?
**A.** 24.9 µM (inactive)

**Q.** What about the GI50 (COLO 205) of the same molecule?
**A.** 18.2 µM (inactive)

**Q.** And the GI50 (UACC-257)?
**A.** 32.8 µM (inactive)

**Q.** And the GI50 (UO-31)?
**A.** 24.9 µM (inactive)

**Q.** What about the GI50 (OVCAR-8) of the same molecule?
**A.** 26.1 µM (inactive)

**Q.** What about the GI50 (DMS-273) of the same molecule?
**A.** > 10 µM (inactive)

**Q.** What about the GI50 (HCT-15) of the same molecule?
**A.** 22.5 µM

**Q.** What about the GI50 (NCI-H460) of the same molecule?
**A.** 25.1 µM (inactive)

**Q.** And the GI50 (M19-MEL)?
**A.** 27.5 µM (inactive)

**Q.** What about the GI50 (SN12C) of the same molecule?
**A.** 18.9 µM (inactive)

**Q.** What about the GI50 (SNB-75) of the same molecule?
**A.** 27.4 µM (inactive)

**Q.** What about the GI50 (CCRF-CEM) of the same molecule?
**A.** 23.7 µM (inactive)

**Q.** And the GI50 (SK-OV-3)?
**A.** 63.8 µM (inactive)

**Q.** And the GI50 (EKVX)?
**A.** 43.2 µM (inactive)

**Q.** What about the GI50 (SK-MEL-5) of the same molecule?
**A.** 21.6 µM (inactive)

**Q.** What about the GI50 (U-251) of the same molecule?
**A.** 23.4 µM (inactive)

**Q.** What about the GI50 (HT-29) of the same molecule?
**A.** 28.6 µM (inactive)

**Q.** What about the GI50 (A549) of the same molecule?
**A.** 35.9 µM (inactive)

**Q.** What about the GI50 (K562) of the same molecule?
**A.** 25.1 µM (inactive)

**Q.** What about the GI50 (DMS-114) of the same molecule?
**A.** 20.6 µM (inactive)

**Q.** What about the GI50 (HCC 2998) of the same molecule?
**A.** > 10 µM (inactive)

**Q.** What about the GI50 (A498) of the same molecule?
**A.** 16.3 µM (inactive)

**Q.** What about the GI50 (LOX IMVI) of the same molecule?
**A.** 17.1 µM (inactive)

**Q.** And the GI50 (HL-60)?
**A.** 26.7 µM (inactive)

**Q.** What about the GI50 (SF-539) of the same molecule?
**A.** 21.8 µM (inactive)

**Q.** What about the GI50 (RPMI-8226) of the same molecule?
**A.** 21.6 µM (inactive)

**Q.** What about the GI50 (MOLT-4) of the same molecule?
**A.** 18.8 µM (inactive)

**Q.** What about the GI50 (HOP-18) of the same molecule?
**A.** 17.9 µM (inactive)

**Q.** And the GI50 (HCT-116)?
**A.** 15.7 µM (inactive)

**Q.** What about the GI50 (SK-MEL-28) of the same molecule?
**A.** 22.8 µM (inactive)

**Q.** And the GI50 (LXFL 529)?
**A.** 18.3 µM (inactive)

**Q.** What about the GI50 (TK-10) of the same molecule?
**A.** 53.6 µM (inactive)

**Q.** What about the GI50 (KM12) of the same molecule?
**A.** 19.8 µM (inactive)

**Q.** What about the GI50 (Malme-3M) of the same molecule?
**A.** > 100 µM (inactive)

**Q.** What about the GI50 (SF-295) of the same molecule?
**A.** 24.4 µM (inactive)

**Q.** And the GI50 (CAKI-1)?
**A.** 32.8 µM (inactive)

**Q.** And the GI50 (786-0)?
**A.** 18.9 µM (inactive)

**Q.** What about the GI50 (NCI-H23) of the same molecule?
**A.** 21.4 µM (inactive)

**Q.** What about the GI50 (RXF 393) of the same molecule?
**A.** 17.7 µM (inactive)

**Q.** And the GI50 (UACC-62)?
**A.** 17.8 µM (inactive)

**Q.** And the GI50 (NCI-H226)?
**A.** 15.1 µM (inactive)

**Q.** What about the GI50 (DLD-1) of the same molecule?
**A.** 34.2 µM (inactive)

**Q.** And the GI50 (OVCAR-3)?
**A.** 18.9 µM (inactive)

Source: ChEMBL document CHEMBL1201862, “PubChem BioAssay data set” (2004)
